Measured values as given in US20120108667A1, “HYDROXY CERAMIDES AND ANALOGS THEREOF AND THEIR USE FOR PREVENTING OR TREATING CANCER” (priority 2010, published 2012).
Values joined by “and” are separate entries in the source; they are usually repeats but may differ in a detail not shown here. Identical values can stand only once. Like-named read-outs stand apart in the source and are kept apart here.

Columns and labels:
[1] = target: T1, dhCer desaturase (Homo sapiens, UniProt O15121); assay: Conversion of C6-dhCer analogs to their unsaturated analogs in MCF7 cells; assay type: cell-based; details: 24 h treatment
T1 construct: endogenous in cells; host or cells: MCF7
T1 sequence (O15121 1-323): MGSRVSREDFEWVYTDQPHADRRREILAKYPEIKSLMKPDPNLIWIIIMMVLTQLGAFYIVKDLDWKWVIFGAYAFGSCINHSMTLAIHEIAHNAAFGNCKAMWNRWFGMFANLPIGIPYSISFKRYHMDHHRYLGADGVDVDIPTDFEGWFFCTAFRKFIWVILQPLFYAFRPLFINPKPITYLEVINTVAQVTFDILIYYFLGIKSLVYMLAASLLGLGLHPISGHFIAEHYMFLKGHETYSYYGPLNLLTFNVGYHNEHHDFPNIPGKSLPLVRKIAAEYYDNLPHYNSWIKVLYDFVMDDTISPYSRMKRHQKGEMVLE
Method: (§1) Advanced analyses were performed on a Thermo Finnigan TSQ 7000, triple-stage quadrupole mass spectrometer operating in a Multiple Reaction Monitoring (MRM) positive ionization mode as described (J. Bielawski, et al., Methods 39 (2006), p. 82; J. Bielawski, et al., Methods Mol. Biol. 579 (2009), p. 443). Quantitative analysis of the cellular level of 2′-OH—C6-Cers/dhCers and C6-Cer/dhCer was based on the calibration curves generated by spiking an artificial matrix with known amounts of target standards and an equal amount of the internal standard (IS). The target analyte to IS peak area ratios from the samples were similarly normalized to their respective IS and compared to the calibration curves using a linear regression model. Final results were expressed as the level of the particular SPLs/phospholipids (Pi) determined from the Bligh & Dyer lipid extract and expressed as SPLs/Pi (pmol/nmol).

[2] = tested on: MCF7 cells; assay: Cell proliferation of MCF7 cells (cell counts, Trypan blue, 24 h); assay type: cell-based, human; details: for IC50: read-out: IC50, MCF7 cell growth inhibition
Method: (§2) MCF7 cells (breast adenocarcinoma, pleural effusion) were purchased from American type Culture Collection (ATCC, Rockville, Md., USA) and grown in RPMI 1640 media (Life Technologies, Inc) supplemented with 10% fetal calf serum (FCS, Summit Biotechnology, CO, USA) and maintained under standard incubator conditions (humidified atmosphere 95% air, 5% CO2, 37° C.). A parallel set of cells was used to determine cell proliferation and to prepare lipid extracts for MS analysis.
MCF7 cells were seeded at a density of ˜50% (corresponding to 1×10^6 cells) in 10 ml of 10% FCS and, after an overnight incubation, were treated with the compounds at (0-50 μM) in ethanol (<0.1%) and the changes in cell numbers after 24 h were determined and expressed as a percentage of the untreated controls. Briefly, media were removed, cells were washed twice with PBS, detached using 1% Trypsin and centrifuged at 800 rpm. Cell pellets were resuspended in PBS and Trypan blue (Sigma Chemicals, St. Louis, Mo., USA) was added (1:1 dilution). Under a light microscope, the percentage of unstained and stained cells was assessed.

[3] = tested on: endogenous SPLs in MCF7 cells; assay: LC-MS/MS analysis of endogenous SPLs in treated MCF7 cells; assay type: cell-based, human; details: for elevation of cellular dhCer: 40 μM treatment
Method: as §2, §1

[4] = tested on: MCF7 cells; assay: LC-MS/MS cellular levels of exogenously added compounds in MCF7 cells; assay type: cell-based, human; details: for cellular level of the analog, time course / cellular level of the analog, concentration dependent / cellular uptake, early level: MCF7 cells; for cellular level of the analog, time course / cellular uptake, early level: 10 μM; for cellular level of the analog, time course: up to 24 h; for cellular accumulation: MCF7 cells (Example 6); for cellular level of the analog, concentration dependent: 24 h; for cellular uptake, early level: up to ~1 h
Method: as §2, §1

[5] = tested on: HL60 leukemia cells; details: previously reported; cited from earlier work
[6] = 10 μM, time-dependent experiment, data not shown

CCCCCCCCCCCCCCC[C@@H](O)[C@H](CO)NC(=O)CCCCC [C6-dhCer]
conversion to the corresponding unsaturated analog [1]: 42% | concentration at which an inhibitory effect on cell growth is caused [2]: higher than 10 μM | IC50 [2]: ~38 µM and 38 µM | effect on Cer species, time dependent ([3]; 10 μM): elevated all Cer species | effect on cellular Sph, time dependent ([3]; 10 μM): slightly increased | cellular Cers level, time dependent ([3]; 10 μM, at 24 h): 280% | cellular dhCers level, time dependent ([3]; 10 μM, at 24 h): decreased to almost control level | effect on dhCer species, time dependent ([3]; 10 μM, data not shown): elevated all dhCer species | cellular Cers level, time dependent ([3]; 10 μM, up to 5 h): 310% | cellular dhCers level, time dependent ([3]; 10 μM, up to 5 h): 750% | elevation of cellular dhCer ([3]; 24 h): ~7 fold | endogenous Cer level ([3]; 40 μM, 24 h): 550% | increase of cellular dhSph ([3]; 40 μM, 24 h): ~5 fold | elevation of dhC16-Cer (C16-dhCer) ([3]; 24 h, results not shown): ≤ 13 fold | C16-Cer/C16-dhCer fold ratio ([3]; MCF7 cells): 50/13 | influence on levels of cellular Cers/dhCers ([3]; MCF7 cells): significantly increased the levels of their cellular long chain homologs | cellular Sph level (decrease to) ([3]; at a low concentration, 24 h): ~70% | effect on cellular dhCers ([3]; up to 10 μM, 24 h): did not induce elevation of cellular dhCers | cellular level of the analog, time course [4]: followed the curve of C6-Cer, however at a lower rate

CCCCCCCCCCCCC/C=C/[C@@H](O)[C@H](CO)NC(=O)[C@@H](O)CCCC [LCL367, (2S,3R,2′S,4E)-2′-Hydroxy-C6-ceramide]
cellular accumulation [4]: higher cellular accumulation | cellular level of the analog, time course [4]: elevated up to 2.5 h followed by a small decrease at 5 h and plateau to 24 h | cellular level of the analog, concentration dependent [4]: highest level

CCCCCCCCCCCCC/C=C/[C@@H](O)[C@H](CO)NC(=O)CCCCC [C6-Cer]
IC50 ([2]; listed as C6-ceramide): 12 µM | IC50 [2]: ~12 µM | cellular Cers level, time dependent ([3]; 10 μM, at 24 h): 350% | cellular Cers level, time dependent ([3]; 10 μM, up to 5 h): 500% | increase of C14-Cer ([3]; 20 μM treatment, 24 h): ~40 fold | increase of C16-Cer ([3]; 20 μM treatment, 24 h): ~20 fold | increase of C18-Cer ([3]; 20 μM treatment, 24 h): ~80 fold | increase of C24-Cer ([3]; 20 μM treatment, 24 h): ~0.2 fold | increase of C24:1-Cer ([3]; 20 μM treatment, 24 h): fivefold | cellular S1P level ([3]; 20 μM, 24 h): 800% | endogenous Cer (total) level ([3]; 20 μM, 24 h): up to 900% | endogenous Sph level ([3]; 20 μM, 24 h): ≤ 600% | concentration from which all Cer species are elevated ([3]; 24 h): ≥ 5 µM | influence on levels of cellular Cers/dhCers ([3]; MCF7 cells): significantly increased the levels of their cellular long chain homologs | metabolism/conversion to cellular long chain 2′-OH homologs (2′-OHCer analogs) ([3]; MCF7 cells): not converted to the cellular 2′-OHCer analogs | cellular level of the analog, time course [4]: progressively increased up to 5 h followed by decrease at 24 h | cellular uptake, early level [4]: highest levels

CCCCCCCCCCCCC/C=C/[C@@H](O)[C@H](CO)NC(=O)[C@H](O)CCCC [LCL366, (2S,3R,2′R,4E)-2′-Hydroxy-C6-ceramide]
cellular accumulation [4]: low cellular accumulation | cellular level of the analog, time course [4]: progressively decreased to the lowest level among all tested analogs at 24 h | cellular uptake, early level [4]: highest levels | cellular level of the analog, concentration dependent [4]: lowest level

CCCCCCCCCCCCC/C=C/[C@@H](O)[C@H](CO)NC(=O)[C@H](C)O [(2′S)-2′-OH—C3-Cer]
potency relative to the other isomer [5]: much more potent then its (2′R)-isomer

CCCCCCCCCCCCCCC[C@@H](O)[C@H](CO)NC(=O)[C@@H](O)CCCC [LCL466, (2S,3R,2′S)-2′-Hydroxy-C6-dihydroceramide]
conversion to the corresponding unsaturated analog [1]: up to 12% | IC50 ([2]; listed as (2′S)-2′-OH—C6-dhCer): ~12 µM and 12 µM | effect on Cer species, time dependent ([3]; 10 μM): elevated all Cer species | cellular Cers level, time dependent ([3]; 10 μM, at 24 h): the same as for 5 h treatment | cellular dhCers level, time dependent ([3]; 10 μM, at 24 h): the same as for 5 h treatment | effect on dhCer species, time dependent ([3]; 10 μM, data not shown): elevated all dhCer species | cellular Cers level, time dependent ([3]; 10 μM, up to 5 h): 200% | cellular dhCers level, time dependent ([3]; 10 μM, up to 5 h): 200% | elevation of cellular dhCer ([3]; 24 h): ~19 fold | increase of cellular dhSph ([3]; 40 μM, 24 h): ~16 fold | cellular Sph level, concentration dependent ([3]; 24 h): elevation of cellular Sph | elevation of dhC16-Cer (C16-dhCer) ([3]; 24 h, results not shown): up to 25 fold | C16-Cer/C16-dhCer fold ratio ([3]; MCF7 cells): 50/25 | effectiveness as inducer of cellular dhCers, Cers, dhSph and Sph ([3]; MCF7 cells): three time more effective than C6-dhCer | cellular level of the analog, time course [4]: elevated up to 5 h reaching the level of C6-dhCer and remaining constant up to 24 h

CCCCCCCCCCCCCCC[C@@H](O)[C@H](CO)NC(=O)[C@H](O)CCCC [LCL467, (2S,3R,2′R)-2′-Hydroxy-C6-dihydroceramide]
conversion to the corresponding unsaturated analog [1]: up to 5% | effect of 20 μM treatment on cells ([2]; 20 μM): total cell death | IC50 ([2]; listed as (2′R)-2′-OH—C6-dhCer): ~8 µM and 8 µM | endogenous Cer (total) level ([3]; 10 μM, 24 h, concentration-dependent experiment): ~150% | cellular Cers level, time dependent ([3]; 10 μM, at 24 h): ~140% | cellular dhCers level, time dependent ([3]; 10 μM, at 24 h): remained unchanged | decrease of long chain dhCers [3, 6]: 10-25% | increase of very long chain dhCers [3, 6]: 20-30% | cellular Cers level, time dependent ([3]; 10 μM, up to 5 h): did not affect | cellular dhCers level, time dependent ([3]; 10 μM, up to 5 h): did not affect | decrease of C16-Cer ([3]; 1-5 μM, 24 h): up to 60% | cellular Sph level, concentration dependent ([3]; 24 h): ~80% | effect on cellular dhSph ([3]; 24 h): did not affect | C14-dhCer level (decrease to) ([3]; 24 h, results not shown): 25 % control | elevation of dhC16-Cer (C16-dhCer) ([3]; 24 h, results not shown): did not elevate | effectiveness as inducer of cellular dhCers, Cers, dhSph and Sph ([3]; MCF7 cells): not effective | effect on cellular Cer ([3]; up to 5 μM, 24 h): did not affect | cellular level of the analog, time course [4]: showed the lowest level, remaining in a plateau between 2.5-24 h
